“And” between values parts separate entries of the source, which are not always exact repeats. Identical values can stand only once. “Also recorded” adds a separate entry of the source.
Experiments:
P. falciparum strain Dd2 = assay: Growth inhibition assay, asexual blood stages; assay type: cell-based, Plasmodium falciparum; details: for IC90: Plasmodium falciparum, DD2, 72 h; for absolute Hill coefficient: in vitro growth inhibition curves
[1] = system: P. falciparum strain NF54; assay: Growth inhibition assay; assay type: cell-based; details: Plasmodium falciparum
[2] = system: Dd2 P. falciparum parasites; assay: In vitro parasite reduction ratio assay (Sanz protocol); assay type: cell-based, Plasmodium falciparum; details: for In vitro PCT99.9% / In vitro lag phase: 10 times IC50, Dd2; for parasites killed within the first 48 h of treatment: in vitro assay and NSG mouse model
Plasmodium vinckei = assay: Rodent malaria model; assay type: in vivo
Source text: The two SC compounds were also active in the Plasmodium vinckei rodent malaria model system.

A2A (h) = target: T1, A2A (h) (Homo sapiens, UniProt P29274); assay: Radioligand binding
T1 construct: Cerep (contract study)

b1 (h) = target: T2, b1 (h) (Homo sapiens, UniProt P08588); assay: Radioligand binding
T2 construct: Cerep (contract study)

CCK1 (CCKA) (h) = target: T3, CCK1 (CCKA) (h) (Homo sapiens, UniProt P32238); assay: Radioligand binding
T3 construct: Cerep (contract study)

D1 (h) = target: T4, D1 (h) (Homo sapiens, UniProt P21728); assay: Radioligand binding
T4 construct: Cerep

GABA (non-selective) = assay: Radioligand binding
CXCR2 (IL-8B) (h) = target: T5, CXCR2 (IL-8B) (h) (Homo sapiens, UniProt P25025); assay: Radioligand binding
T5 construct: Cerep
T5 sequence (P25025 1-360): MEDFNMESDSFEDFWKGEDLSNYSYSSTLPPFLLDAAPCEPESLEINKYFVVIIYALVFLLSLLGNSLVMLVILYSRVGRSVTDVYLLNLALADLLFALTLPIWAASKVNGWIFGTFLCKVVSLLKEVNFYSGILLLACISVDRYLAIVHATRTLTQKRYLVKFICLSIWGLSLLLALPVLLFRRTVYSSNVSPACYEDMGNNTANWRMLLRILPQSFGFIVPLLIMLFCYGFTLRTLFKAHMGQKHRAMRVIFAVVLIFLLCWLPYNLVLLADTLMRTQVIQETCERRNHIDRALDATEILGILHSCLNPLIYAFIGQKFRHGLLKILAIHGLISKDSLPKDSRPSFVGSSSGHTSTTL

H2 (h) = target: T6, H2 (h) (Homo sapiens, UniProt P25021); assay: Radioligand binding
T6 construct: Cerep

MC4 (h) = target: T7, MC4 (h) (Homo sapiens, UniProt P32245); assay: Radioligand binding
T7 construct: Cerep

MT1 (ML1A) (h) = target: T8, MT1 (ML1A) (h) (Homo sapiens, UniProt P48039); assay: Radioligand binding
T8 construct: Cerep

NK2 (h) = target: T9, NK2 (h) (Homo sapiens, UniProt P21452); assay: Radioligand binding
T9 construct: Cerep

NK3 (h) = target: T10, NK3 (h) (Homo sapiens, UniProt P29371); assay: Radioligand binding
T10 construct: Cerep

Y2 (h) = target: T11, Y2 (h) (Homo sapiens, UniProt P49146); assay: Radioligand binding
T11 construct: Cerep

k (KOP) = target: T12, k (KOP) (Rattus norvegicus, UniProt P34975); assay: Radioligand binding
T12 construct: Cerep

TP (h) (TXA2/PGH2) = target: T13, TP (h) (TXA2/PGH2) (Homo sapiens, UniProt P21731); assay: Radioligand binding
T13 construct: Cerep
T13 sequence (P21731 1-343): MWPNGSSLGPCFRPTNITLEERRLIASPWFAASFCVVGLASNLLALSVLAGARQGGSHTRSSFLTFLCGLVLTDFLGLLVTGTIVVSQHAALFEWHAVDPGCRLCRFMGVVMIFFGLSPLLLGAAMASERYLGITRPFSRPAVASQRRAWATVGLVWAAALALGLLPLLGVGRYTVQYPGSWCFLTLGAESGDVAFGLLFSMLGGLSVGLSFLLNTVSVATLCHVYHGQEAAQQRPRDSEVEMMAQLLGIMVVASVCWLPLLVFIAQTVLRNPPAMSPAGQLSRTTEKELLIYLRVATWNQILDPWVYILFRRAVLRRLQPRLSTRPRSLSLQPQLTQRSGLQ

5-HT1B = target: T14, 5-HT1B (Rattus norvegicus, UniProt P28564); assay: Radioligand binding
T14 construct: Cerep (contract screening)

V1a (h) = target: T15, V1a (h) (Homo sapiens, UniProt P37288); assay: Radioligand binding
T15 construct: Cerep (contract screening)

Na+ channel (site 2) = assay: Radioligand binding
Cl- channel (GABA-gated) = assay: Radioligand binding
dopamine transporter (h) = target: T16, dopamine transporter (h) (Homo sapiens, UniProt Q01959); assay: Radioligand binding
T16 construct: Cerep (contract screening)

human T-cells = assay: Cytotoxicity; details: 50 μM
[3] = system: cytoplasmic free Ca2+ in P. falciparum HB3 trophozoites; assay: Ca2+ live imaging, Fluo-4; details: SC compounds 10 and 20 μM; CPA 10 μM
[4] = In vitro micronucleus assay; details: 60 μM
CYP2C9 = CYP2C9 (Homo sapiens, UniProt P11712); assay: CYP inhibition, human liver microsomes; details: CYP2C9, tolbutamide to OH-tolbutamide, 10 µM
CYP2E1 = CYP2E1 (Homo sapiens, UniProt P05181); assay: CYP inhibition, human liver microsomes; details: for Remaining enzyme activity: CYP2E1, chlorzoxazone to 6-OH-chlorzoxazone, 10 µM
[5] = In vitro metabolism in liver microsomes; details: monkey liver microsomes, 10 μM
[6] = In vitro metabolism in liver microsomes; details: dog liver microsomes, 10 μM
[7] = In vitro metabolism in liver microsomes; details: mouse liver microsomes, 10 μM
[8] = In vitro metabolism in liver microsomes; details: rat liver microsomes, 10 μM
[9] = P. vinckei, 30 mg kg-1 i.p. 1x4 days

Chain of CYP2E1 (P05181 whole entry): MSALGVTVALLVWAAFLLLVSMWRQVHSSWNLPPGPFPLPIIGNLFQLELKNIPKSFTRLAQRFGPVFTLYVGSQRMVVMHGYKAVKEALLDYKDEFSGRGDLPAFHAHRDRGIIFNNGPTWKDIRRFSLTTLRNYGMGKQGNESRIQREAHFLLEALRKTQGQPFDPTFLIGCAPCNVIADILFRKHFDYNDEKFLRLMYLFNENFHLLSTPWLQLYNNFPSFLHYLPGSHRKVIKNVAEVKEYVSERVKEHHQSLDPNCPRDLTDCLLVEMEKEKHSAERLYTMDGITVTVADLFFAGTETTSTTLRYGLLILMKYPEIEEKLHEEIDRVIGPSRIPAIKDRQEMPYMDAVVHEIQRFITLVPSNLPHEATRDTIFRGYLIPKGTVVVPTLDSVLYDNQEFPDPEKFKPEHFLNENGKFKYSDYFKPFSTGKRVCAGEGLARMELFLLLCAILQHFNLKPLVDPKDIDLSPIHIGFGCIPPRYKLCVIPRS
T8 sequence (P48039 whole entry): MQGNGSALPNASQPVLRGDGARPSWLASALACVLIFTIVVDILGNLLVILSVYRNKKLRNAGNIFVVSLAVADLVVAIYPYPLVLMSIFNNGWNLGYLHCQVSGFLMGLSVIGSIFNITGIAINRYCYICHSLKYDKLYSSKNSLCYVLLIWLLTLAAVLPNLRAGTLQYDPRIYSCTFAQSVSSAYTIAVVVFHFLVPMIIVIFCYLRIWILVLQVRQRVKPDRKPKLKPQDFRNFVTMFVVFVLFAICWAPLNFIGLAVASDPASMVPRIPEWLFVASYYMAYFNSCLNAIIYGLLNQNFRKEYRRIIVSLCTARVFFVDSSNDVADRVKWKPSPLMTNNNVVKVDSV
T4 sequence (P21728 whole entry): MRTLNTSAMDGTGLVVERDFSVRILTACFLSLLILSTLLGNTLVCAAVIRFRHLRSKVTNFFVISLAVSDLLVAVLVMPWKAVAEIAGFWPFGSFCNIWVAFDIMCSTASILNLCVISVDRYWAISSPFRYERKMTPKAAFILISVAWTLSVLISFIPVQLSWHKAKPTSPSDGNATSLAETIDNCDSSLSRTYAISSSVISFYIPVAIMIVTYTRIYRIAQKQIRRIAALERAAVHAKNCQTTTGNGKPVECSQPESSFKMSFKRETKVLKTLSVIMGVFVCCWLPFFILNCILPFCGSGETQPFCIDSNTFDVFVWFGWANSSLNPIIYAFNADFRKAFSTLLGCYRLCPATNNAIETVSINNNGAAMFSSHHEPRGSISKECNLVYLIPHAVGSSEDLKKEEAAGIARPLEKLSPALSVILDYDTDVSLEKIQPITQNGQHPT
T2 sequence (P08588 whole entry): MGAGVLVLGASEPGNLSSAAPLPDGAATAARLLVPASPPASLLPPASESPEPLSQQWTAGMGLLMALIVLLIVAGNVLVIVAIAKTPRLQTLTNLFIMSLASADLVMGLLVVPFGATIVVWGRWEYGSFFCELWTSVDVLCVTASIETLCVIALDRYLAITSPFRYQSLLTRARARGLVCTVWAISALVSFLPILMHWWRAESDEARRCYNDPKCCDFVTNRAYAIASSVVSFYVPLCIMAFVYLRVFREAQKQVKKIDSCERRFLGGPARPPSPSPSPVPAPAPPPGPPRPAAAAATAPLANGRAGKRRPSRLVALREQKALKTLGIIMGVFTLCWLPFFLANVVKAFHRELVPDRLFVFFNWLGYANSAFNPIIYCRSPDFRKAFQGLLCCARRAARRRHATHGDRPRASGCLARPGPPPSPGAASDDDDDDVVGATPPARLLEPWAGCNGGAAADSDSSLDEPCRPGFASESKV
T16 sequence (Q01959 whole entry): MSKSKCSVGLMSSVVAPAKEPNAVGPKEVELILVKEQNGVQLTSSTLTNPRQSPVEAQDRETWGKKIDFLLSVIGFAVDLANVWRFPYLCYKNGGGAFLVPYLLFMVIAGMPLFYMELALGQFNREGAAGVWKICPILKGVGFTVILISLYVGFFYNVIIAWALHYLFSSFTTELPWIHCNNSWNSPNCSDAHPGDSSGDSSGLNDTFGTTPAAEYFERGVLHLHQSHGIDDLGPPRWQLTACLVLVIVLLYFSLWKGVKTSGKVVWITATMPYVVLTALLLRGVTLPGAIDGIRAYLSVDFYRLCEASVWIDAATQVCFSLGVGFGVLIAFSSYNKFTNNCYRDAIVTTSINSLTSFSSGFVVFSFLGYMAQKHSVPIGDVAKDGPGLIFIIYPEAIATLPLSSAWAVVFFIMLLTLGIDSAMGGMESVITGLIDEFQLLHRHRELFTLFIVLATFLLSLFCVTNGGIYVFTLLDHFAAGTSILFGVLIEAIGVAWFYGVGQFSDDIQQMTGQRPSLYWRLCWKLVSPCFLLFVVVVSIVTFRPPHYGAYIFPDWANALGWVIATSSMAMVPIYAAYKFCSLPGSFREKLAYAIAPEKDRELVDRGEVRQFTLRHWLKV
T14 sequence (P28564 whole entry): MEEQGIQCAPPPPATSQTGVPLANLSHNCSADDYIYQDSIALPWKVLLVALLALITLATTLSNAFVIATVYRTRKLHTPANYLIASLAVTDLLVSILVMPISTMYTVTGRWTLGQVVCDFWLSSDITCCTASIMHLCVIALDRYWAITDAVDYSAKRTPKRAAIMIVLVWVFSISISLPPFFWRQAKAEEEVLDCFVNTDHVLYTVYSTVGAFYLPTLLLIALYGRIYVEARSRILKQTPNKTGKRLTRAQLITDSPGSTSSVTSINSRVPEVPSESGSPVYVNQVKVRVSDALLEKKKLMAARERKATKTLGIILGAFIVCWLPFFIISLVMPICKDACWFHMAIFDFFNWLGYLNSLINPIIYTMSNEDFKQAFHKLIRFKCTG
Chain of CYP2C9 (P11712 whole entry): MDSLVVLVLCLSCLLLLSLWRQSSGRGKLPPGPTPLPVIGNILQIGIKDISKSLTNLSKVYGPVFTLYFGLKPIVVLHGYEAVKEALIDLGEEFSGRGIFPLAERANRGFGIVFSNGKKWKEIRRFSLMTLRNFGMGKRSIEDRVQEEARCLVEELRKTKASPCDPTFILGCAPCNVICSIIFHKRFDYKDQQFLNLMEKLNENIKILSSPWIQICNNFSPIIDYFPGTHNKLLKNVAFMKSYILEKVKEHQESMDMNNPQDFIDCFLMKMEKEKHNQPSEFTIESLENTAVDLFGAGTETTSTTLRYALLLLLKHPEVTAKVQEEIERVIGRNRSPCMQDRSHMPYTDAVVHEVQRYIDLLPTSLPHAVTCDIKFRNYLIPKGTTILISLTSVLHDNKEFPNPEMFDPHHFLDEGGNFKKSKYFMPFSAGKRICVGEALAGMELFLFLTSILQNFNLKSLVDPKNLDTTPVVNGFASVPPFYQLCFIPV
T1 sequence (P29274 whole entry): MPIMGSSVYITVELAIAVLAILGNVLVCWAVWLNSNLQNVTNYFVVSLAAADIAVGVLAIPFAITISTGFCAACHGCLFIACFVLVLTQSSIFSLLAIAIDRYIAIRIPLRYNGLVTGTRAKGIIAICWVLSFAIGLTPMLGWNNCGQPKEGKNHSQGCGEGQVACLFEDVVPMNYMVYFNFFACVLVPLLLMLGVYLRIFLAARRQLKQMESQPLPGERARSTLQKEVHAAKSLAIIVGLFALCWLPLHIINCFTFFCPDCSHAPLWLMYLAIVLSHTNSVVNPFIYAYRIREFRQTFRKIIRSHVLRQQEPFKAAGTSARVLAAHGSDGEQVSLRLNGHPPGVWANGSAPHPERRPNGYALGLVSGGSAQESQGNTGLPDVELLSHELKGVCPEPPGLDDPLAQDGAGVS
T11 sequence (P49146 whole entry): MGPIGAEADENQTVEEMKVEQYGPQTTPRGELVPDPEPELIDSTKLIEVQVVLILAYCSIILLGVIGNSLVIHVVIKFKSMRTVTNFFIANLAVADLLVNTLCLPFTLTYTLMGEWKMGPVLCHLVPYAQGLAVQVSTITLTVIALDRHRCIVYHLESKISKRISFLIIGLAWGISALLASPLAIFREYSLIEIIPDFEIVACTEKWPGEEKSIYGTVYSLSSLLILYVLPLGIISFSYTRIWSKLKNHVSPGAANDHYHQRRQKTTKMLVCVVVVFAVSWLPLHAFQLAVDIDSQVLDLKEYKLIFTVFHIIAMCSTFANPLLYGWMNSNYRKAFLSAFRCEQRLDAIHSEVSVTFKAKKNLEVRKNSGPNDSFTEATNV
T7 sequence (P32245 whole entry): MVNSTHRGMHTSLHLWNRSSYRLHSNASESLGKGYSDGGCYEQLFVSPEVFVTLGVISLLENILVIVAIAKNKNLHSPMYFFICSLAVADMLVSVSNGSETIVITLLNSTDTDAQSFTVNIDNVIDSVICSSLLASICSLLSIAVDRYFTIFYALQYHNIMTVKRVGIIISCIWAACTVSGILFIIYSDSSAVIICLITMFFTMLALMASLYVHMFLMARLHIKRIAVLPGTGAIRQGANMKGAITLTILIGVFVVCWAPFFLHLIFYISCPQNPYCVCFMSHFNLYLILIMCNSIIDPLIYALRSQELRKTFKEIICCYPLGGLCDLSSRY
T3 sequence (P32238 whole entry): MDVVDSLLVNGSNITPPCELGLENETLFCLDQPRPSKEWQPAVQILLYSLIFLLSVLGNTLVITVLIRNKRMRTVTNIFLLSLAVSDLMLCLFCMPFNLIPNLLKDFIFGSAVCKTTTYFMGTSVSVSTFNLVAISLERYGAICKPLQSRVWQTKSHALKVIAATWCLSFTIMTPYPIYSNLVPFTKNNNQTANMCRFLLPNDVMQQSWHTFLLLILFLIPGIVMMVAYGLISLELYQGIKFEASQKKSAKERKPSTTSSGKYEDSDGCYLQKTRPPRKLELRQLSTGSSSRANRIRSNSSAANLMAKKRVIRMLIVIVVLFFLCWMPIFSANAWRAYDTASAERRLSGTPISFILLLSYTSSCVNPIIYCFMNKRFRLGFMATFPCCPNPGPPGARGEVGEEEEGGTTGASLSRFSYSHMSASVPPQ

For `CCCCN1CCN(C(=N)c2cccc(NC(=O)Nc3ccc(S(=O)(=O)NCc4ccc(S(N)(=O)=O)cc4)cc3)c2)CC1` [SC81458, 4-(3-(3-((4-butylpiperazin-1-yl)(imino)methyl)phenyl)ureido)-N-(4-sulfamoylbenzyl) benzenesulfonamide], the IC90 (P. falciparum strain Dd2) was 18 nM, the “absolute Hill coefficient” value (P. falciparum strain Dd2) was 2.6±0.3 and the IC50 [1] was 0.4 ± 0.05 nM. The “In vitro PCT99.9%” value [2] was 37±4 h and 37±4 (4) h, the “In vitro lag phase” value [2] was under 5 h and the “parasites killed within the first 48 h of treatment” value [2] was at least 99.9%. For the same compound, the “parasitemia in treated mice at day 5” value (Plasmodium vinckei; 30 mg kg^−1 per day for 4 days) was 3.3%, the Outcome (Plasmodium vinckei; [9]) was “rescrudescence; also recorded: all treated mice died of a recrudescent parasitemia” and the “Outcome: decrease of parasitemia” value (Plasmodium vinckei; [9]) was > 90% and 97%. For the same compound, the “Inhibition of control specific binding” value (A2A (h)) was 5%, the “Inhibition of control specific binding” value (b1 (h)) was -2% and the “Inhibition of control specific binding” value (CCK1 (CCKA) (h)) was 0%. For the same compound, the “Inhibition of control specific binding” value (D1 (h)) was 51%, the “Inhibition of control specific binding” value (GABA (non-selective)) was 14% and the “Inhibition of control specific binding” value (CXCR2 (IL-8B) (h)) was -8%. The “Inhibition of control specific binding” value (H2 (h)) was 26%, the “Inhibition of control specific binding” value (MC4 (h)) was -10% and the “Inhibition of control specific binding” value (MT1 (ML1A) (h)) was -5%. For the same compound, the “Inhibition of control specific binding” value (NK2 (h)) was 51%, the “Inhibition of control specific binding” value (NK3 (h)) was 6% and the “Inhibition of control specific binding” value (Y2 (h)) was -20%. The “Inhibition of control specific binding” value (k (KOP)) was 43%, the “Inhibition of control specific binding” value (TP (h) (TXA2/PGH2)) was -10% and the “Inhibition of control specific binding” value (5-HT1B) was -3%. For the same compound, the “Inhibition of control specific binding” value (V1a (h)) was -1%, the “Inhibition of control specific binding” value (Na+ channel (site 2)) was 45% and the “Inhibition of control specific binding” value (Cl- channel (GABA-gated)) was -28%. For the same compound, the “Inhibition of control specific binding” value (dopamine transporter (h)) was 79%, the “in vitro propagation / cytotoxicity” value (human T-cells) was “did not affect” and the “effect on cytoplasmic free Ca^2+” value [3] was “did not affect”. The “mutagenic or clastogenic activity, in vitro micronucleus assay” value [4] was “no signs”, the Remaining enzyme activity (CYP2C9) was 104% and the Remaining enzyme activity (CYP2E1) was 106%. For the same compound, the “remaining after 60 min of incubation” value [5] was “almost completely metabolized”, the “remaining after 60 min of incubation” value [6] was 37% and the “remaining after 60 min of incubation” value [7] was 54%. The “remaining after 60 min of incubation” value [8] was 74%.
For `COC(=O)N1CCN(C(=N)c2cccc(NC(=O)Nc3ccc(S(=O)(=O)NCc4ccc(S(N)(=O)=O)cc4)cc3)c2)CC1` [SC83288, methyl 4-(imino(3-(3-(4-(N-(4-sulfamoylbenzyl)sulfamoyl)phenyl)ureido)phenyl)methyl) piperazine-1-carboxylate], the IC90 (P. falciparum strain Dd2) was 8 nM, the “absolute Hill coefficient” value (P. falciparum strain Dd2) was 2.6±0.3 and the IC50 [1] was 2 ± 1 nM. The “In vitro PCT99.9%” value [2] was 51±6 h and 51±6 (4) h, the “In vitro lag phase” value [2] was under 5 h and the “parasites killed within the first 48 h of treatment” value [2] was at least 99.9%. For the same compound, the Outcome (Plasmodium vinckei; P. vinckei, 20 mg kg-1 i.p. 1x4 days) was “complete clearance, no recrudescence; also recorded: fully cured the infection”, the “Inhibition of control specific binding” value (A2A (h)) was 13% and the “Inhibition of control specific binding” value (b1 (h)) was 7%. The “Inhibition of control specific binding” value (CCK1 (CCKA) (h)) was -5%, the “Inhibition of control specific binding” value (D1 (h)) was 79% and the “Inhibition of control specific binding” value (GABA (non-selective)) was 6%. The “Inhibition of control specific binding” value (CXCR2 (IL-8B) (h)) was -1%, the “Inhibition of control specific binding” value (H2 (h)) was 0% and the “Inhibition of control specific binding” value (MC4 (h)) was 4%. For the same compound, the “Inhibition of control specific binding” value (MT1 (ML1A) (h)) was -16%, the “Inhibition of control specific binding” value (NK2 (h)) was 20% and the “Inhibition of control specific binding” value (NK3 (h)) was 5%. For the same compound, the “Inhibition of control specific binding” value (Y2 (h)) was -4%, the “Inhibition of control specific binding” value (k (KOP)) was 36% and the “Inhibition of control specific binding” value (TP (h) (TXA2/PGH2)) was -5%. For the same compound, the “Inhibition of control specific binding” value (5-HT1B) was 6%, the “Inhibition of control specific binding” value (V1a (h)) was 11% and the “Inhibition of control specific binding” value (Na+ channel (site 2)) was 19%. The “Inhibition of control specific binding” value (Cl- channel (GABA-gated)) was -37%, the “Inhibition of control specific binding” value (dopamine transporter (h)) was 82% and the “in vitro propagation / cytotoxicity” value (human T-cells) was “did not affect”. The “effect on cytoplasmic free Ca^2+” value [3] was “did not affect”, the “mutagenic or clastogenic activity, in vitro micronucleus assay” value [4] was “no signs” and the Remaining enzyme activity (CYP2C9) was 103%. For the same compound, the Remaining enzyme activity (CYP2E1) was 68%, the inhibition at 20 min, 10 µM (CYP2E1; human, pooled liver microsomes, pH 7.4, probe chlorzoxazone (10 μM)) was 30% and the “remaining after 60 min of incubation” value [5] was 51%. The “remaining after 60 min of incubation” value [6] was 83%, the “remaining after 60 min of incubation” value [7] was 96% and the “remaining after 60 min of incubation” value [8] was 91%.
